Reference: patent publication US6838436B1, “Inhibitors of proteasomal activity for stimulating bone growth” (Osteoscreen Inc., priority 1998, dated 2005)

Assays:
[1] = test system: hair follicles of skin explants; experiment: Cultured skin explants from 5 day old mice, hair follicle diameter and elongation (Example 11); format: cell-based, C3H/HeS1c mice; conditions: 10 μM; 72 hours
Procedure: Cultured skin explants from 5 day old mice cultured for 72 hours were treated with proteasome inhibitors, non-proteasomal proteases and non-proteasomal inhibitors of NF-κB and effects on hair follicle diameter and follicle elongation were determined according to the method of Kamiya, T., et al., J Derm Sci (1998) 17:54-60. Skin slices from the dorsal skin of 5 day old C3H/HeS1c mice were cultured in 1 ml of αMEM and 0.1% BSA for 72 hours and then assessed for changes in hair follicle diameter and hair elongation under an inverted microscope, using image analysis. […] Thus, the chymotrypsin-like activity of the proteasome is the catalytic component of the proteasome that is responsible for the effects of these compounds on hair follicle differentiation and hair growth. Only proteasome inhibitors had discernable effects on these parameters.

hair follicles = experiment: Induction of anagen in hair follicles in vivo (Example 12); set-up: species or system C57 black mice; conditions: dose not given
Procedure: Inhibitors of the proteasomal chymotrypsin-like activity were treated for their capacity to induce transit of hair follicles into anagen in vivo in C57 black mice eight weeks of age.

proteasomal activity = conditions: cited from earlier work
mouse BMP2 promoter = experiment: High throughput screen (ABA assay): BMP2 promoter-luciferase reporter in 2T3-BMP-2-LUC osteoblast cells; format: cell-based
Source text: 1995, the entire contents of which are incorporated herein by reference. This assay is also described as a portion of a study of immortalized murine osteoblasts (derived from a mouse expressing a transgene composed of a BMP2 promoter driving expression of T-antigen) in Ghosh-Choudhery, N., et al., Endocrinology (1996) 137:331-39. In this study, the immortalized cells were stably transfected with a plasmid containing a luciferase reporter gene driven by a mouse BMP2 promoter (−2736/114 bp), and responded in a dose-dependent manner to recombinant human BMP2.
Briefly, the assay utilizes cells transformed permanently or transiently with constructs in which the promoter of a bone morphogenetic protein, specifically BMP2 or BMP4, is coupled to a reporter gene, typically luciferase. These transformed cells are then evaluated for the production of the reporter gene product; compounds that activate the BMP promoter will drive production of the reporter protein, which can be readily assayed. Many thousands of compounds have been subjected to this rapid screening technique, and only a very small percentage are able to elicit a level of expression of reporter gene 5-fold greater than that produced by vehicle. […] The active compounds (“BMP promoter-active compounds” or “active compounds”) are useful in promoting bone or cartilage growth, and thus in the treatment of vertebrates in need of bone or cartilage growth.
Thousands of compounds have been tested in the assay system set forth in U.S. Ser. No. 08/458,434, filed 2 Jun. 1995, and incorporated herein by reference. […] In this screen, the standard positive control was the compound 59-0008 (also denoted “OS8”), which is of the formula: [drawing 22]
In more detail, the 2T3-BMP-2-LUC cells, a stably transformed osteoblast cell line described in Ghosh-Choudhury et al. Endocrinology (1996) 137:331-39, referenced above, was employed. The cells were cultured using α-MEM, 10% FCS with 1% penicillin/streptomycin and 1% glutamine (“plating medium”), and were split 1:5 once per week. For the assay, the cells were resuspended in a plating medium containing 4% FCS, plated in microtiter plates at a concentration of 5×10^3 cells (in 50 μl)/well, and incubated for 24 hours at 37° C. in 5% CO2. To initiate the assay, 50 μl of the test compound or the control in DMSO was added at 2× concentration to each well, so that the final volume was 100 μl. The final serum concentration was 2% FCS, and the final DMSO concentration was 1%. Compound 59-0008 (10 μM) was used as a positive control.
The treated cells were incubated for 24 hours at 37° C. and 5% CO2. The medium was then removed, and the cells were rinsed three times with PBS. After removal of excess PBS, 25 μl of 1× cell culture lysing reagent (Promega #E153A) was added to each well and incubated for at least ten minutes. Optionally, the plates/samples could be frozen at this point. To each well was added 50 μl of luciferase substrate (Promega #E152A; 10 ml Promega luciferase assay buffer per 7 mg Promega luciferase assay substrate). Luminescence was measured on an automated 96-well luminometer, and was expressed as either picograms of luciferase activity per well or as picograms of luciferase activity per microgram of protein.
Accordingly, other tested compounds can be evaluated at various concentrations, and the results compared to the results obtained for 59-0008 at 10 μM (which value would be normalized to 100). Alternatively, the reactivity of a compound to be tested can be compared directly to a negative control containing no compound.

neonatal mouse calvaria = experiment: Neonatal mouse calvaria assay (in vitro / ex vivo) for bone formation; format: cell-based, ICR Swiss white mouse
Procedure: An assay for bone resorption or bone formation is similar to that described by Gowen M. & Mundy G., J Immunol (1986) 136:2478-82. Briefly, four days after birth, the front and parietal bones of ICR Swiss white mouse pups are removed by microdissection and split along the sagittal suture. In an assay for resorption, the bones are incubated in BGJb medium (Irvine Scientific, Santa Ana, Calif.) plus 0.02% (or lower concentration) β-methylcyclodextrin, wherein the medium also contains test or control substances. The medium used when the assay is conducted to assess bone formation is Fitton and Jackson Modified BGJ Medium (Sigma) supplemented with 6 μg/ml insulin, 6 μg/ml transferrin, 6 ng/ml selenous acid, calcium and phosphate concentrations of 1.25 and 3.0 mM, respectively, and ascorbic acid to a concentration of 100 μg/ml is added every two days. The incubation is conducted at 37° C. in a humidified atmosphere of 5% CO2 and 95% air for 96 hours.
Following this, the bones are removed from the incubation media and fixed in 10% buffered formalin for 24-48 hours, decalcified in 14% EDTA for 1 week, processed through graded alcohols; and embedded in paraffin wax. Three […] sections of the calvaria are prepared. Representative sections are selected for histomorphometric assessment of bone formation or bone resorption. Bone changes are measured on sections cut 200 μm apart. Osteoblasts and osteoclasts are identified by their distinctive morphology.
Selected compounds and appropriate controls were assayed in vitro (ex vivo) for bone formation activity (described above in “Techniques for Neonatal Mouse Calvaria Assay (in vitro)). Histomorphometrical assessments of ex vivo calvaria were carried out using an OsteoMetrics bone morphometry measurement program, according to the manufacturer's instructions. Measurements were determined using either a 10- or 20-fold objective with a standard point counting eyepiece graticule.
New bone formation was determined (using a 10× objective) by measuring the new bone area formed in one field in 3 representative sections of each bone (4 bones per group). Each measurement was carried out ½ field distance from the end of the suture. Both total bone and old bone area were measured. Data were expressed as new bone area in μm^2.
Osteoblast numbers are determined by point counting. The number of osteoblast cells lining the bone surface on both sides of the bone are counted in one field using a 20× objective. Data are expressed as osteoblast numbers/mm of bone surface. […]

[2] = test system: hair follicles of skin explants; experiment: Skin explants from mice during telogen (Example 16); format: cell-based; conditions: 72 hours
Source text: In the untreated control explants, the follicles were few and small.

Structure (SMILES)	effect on follicle growth [1]	effect on hair follicles (hair follicles)	effects on proteasomal activity (proteasomal activity)	response in the high throughput luciferase screen (mouse BMP2 promoter)	new bone formation in the in vitro calvarial assay (neonatal mouse calvaria)	concentrations causing these changes, relative to the proteasome inhibitors [2]
S=C(S)N1CCCC1 [PDTC, 1-pyrrolidinecarbodithioic acid]	did not significantly affect follicle growth	had no effect on hair follicles	no effects on proteasomal activity	do not give promising responses	appeared negative	
Nc1cc(N2CCCCC2)nc(N)[n+]1[O-] [Minoxidil]						10,000 fold
